In patent US9133240B2, “Compounds binding to the bacterial beta ring” (Centre National de la Recherche Scientifique, priority 2011, dated 2015):
Where “and” joins values, the source holds several entries; their conditions need not be identical. Equal entries are not always repeated. Square brackets hold non-standard residues; d marks the D form. Ends that are not written are not given here. Peptide text beside a SMILES is read from it. Phe(4-Br) = N[C@@H](Cc1ccc(Br)cc1)C(=O)O; Phe(4-Cl) = N[C@@H](Cc1ccc(Cl)cc1)C(=O)O; Phe(4-Me) = Cc1ccc(C[C@H](N)C(=O)O)cc1; hCha = N[C@@H](CCC1CCCCC1)C(=O)O; tBuAla = CC(C)(C)C[C@H](N)C(=O)O; Cha = N[C@@H](CC1CCCCC1)C(=O)O

Key:
E. coli β clamp = target: T1, E. coli β clamp (Escherichia coli, UniProt P0A988); assay: SPR competition assay: inhibition of P1-β interaction by challenging peptides; assay type: binding; conditions: for IC50: IC50 (μM), inhibition of binding of β ring (0.25 μM) to immobilized P1; for Ki (10^6 M^−1): Ki = (1 + KA[β])/IC50; for ΔG: ΔG = −RT ln Ki;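 on all read-outs here: SPR responses corrected for background, then fitted with a 1:1 Langmuir binding model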
T1 construct: made in house; host or cells: E. coli BL21 (β); P1 by solid-phase synthesis
Experimental: SPR experiments were performed on a Biacore® 3000. […] After subtraction of the background response, the data were fit to the 1:1 Langmuir model using BIAevaluation (Biacore™). […] IC50 values for each challenging peptide were determined by plotting the concentration of peptide against the percentage of binding inhibition. The IC50 value of each peptide was used to calculate Ki (Ki=(1+KA[β])/IC50) which measures the affinity of the challenging peptide for β in the competition assay, and AG was derived from Ki (ΔG=RT ln Ki).

β ring [1] = target: T2, β ring (Escherichia coli, UniProt P0A988); assay: Isothermal titration calorimetry (ITC) of peptides into β ring solution; assay type: binding, E. coli; conditions: for ΔG / N: number of binding sites per β monomer: ITC, 25° C; for ΔG: ΔG = ΔH-TΔS; for N: number of binding sites per β monomer: peptide 400 μM, β 20 or 30 μM; for ΔΔG (Kcal/mol) = ΔGj − ΔGi, reference i = P7: compared to P7; for ΔΔG (Kcal/mol) = ΔGj − ΔGi, reference i = P11: compared to P11
T2 construct: made in house; host or cells: E. coli BL21
Experimental: ITC was performed by using a ITC200 microcalorimeter from MicroCal. Peptides (400 μM) were titrated in sequential injections (2 μl each) into a β ring solution (300 μl, 20 or 30 μM) at 25° C. Data were corrected from control experiments where peptides were injected in buffer solution (Hepes 10 mM pH 7.4, NaCl 0.15M, EDTA 3 mM, P20 0.005%). Data analysis was performed with Origin 7.0 software.
Target sequence in this assay (P0A988 whole entry): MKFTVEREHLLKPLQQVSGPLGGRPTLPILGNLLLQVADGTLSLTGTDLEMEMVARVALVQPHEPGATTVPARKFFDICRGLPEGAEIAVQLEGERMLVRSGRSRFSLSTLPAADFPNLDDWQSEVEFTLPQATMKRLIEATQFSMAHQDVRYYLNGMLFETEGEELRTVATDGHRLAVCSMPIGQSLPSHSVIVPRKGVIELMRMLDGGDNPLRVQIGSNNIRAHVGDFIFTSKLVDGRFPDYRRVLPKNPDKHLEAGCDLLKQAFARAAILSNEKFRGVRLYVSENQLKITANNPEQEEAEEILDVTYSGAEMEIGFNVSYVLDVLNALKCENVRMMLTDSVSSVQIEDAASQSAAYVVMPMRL

β ring [2] = target: T2, β ring; assay: IC50 SPR (μM)
Description: Table printed on a drawing sheet, Figure 4
Head of the field: IC50 SPR (μM)
The patent's description of the figure: FIG. 4: Polymerase competition assay. […] Grey: biochemical assay, black: SPR assay. P15 sequence is Ac-RQLVLF, (SEQ ID No: 15), Scr: scrambled peptide: Ac-ChaFQLD, (SEQ ID No: 33).
First copying reader's note: The biochemical assay row is printed with decimal commas and the SPR row with decimal points.
Where the first naming reader finds the target: passage: the relative affinity of two compounds for the β ring is not dependent from the technique used for measuring said affinities (FIG. 4B)
Target sequence in this assay (P0A988 whole entry, looked up): as the sequence (P0A988 whole entry) above

T1 sequence (P0A988 whole entry): as above

Row | Compound | IC50 (E. coli β clamp; SPR) [µM] | Ki (10^6 M^−1) (E. coli β clamp; SPR) | ΔG (E. coli β clamp; SPR) [kcal/mol] | N: number of binding sites per β monomer (β ring [1]) | also measured
1 | CC(=O)N[C@@H](CCC(N)=O)C(=O)N[C@@H](CC1CCCCC1)C(=O)N[C@@H](CC(=O)O)C(=O)N[C@@H](CCC1CCCCC1)C(=O)N[C@@H](Cc1ccccc1)C(=O)O [Peptide P18, Ac Q Cha D hCha F] (Ac-Q[Cha]D[hCha]F-OH; C-terminus assumed) | 0.72 | – | – | – | –
2 | CC(=O)N[C@@H](CCC(N)=O)C(=O)N[C@@H](CC1CCCCC1)C(=O)N[C@@H](CC(=O)O)C(=O)N[C@@H](CC(C)(C)C)C(=O)N[C@@H](Cc1ccccc1)C(=O)O [Peptide P19, Ac Q ChaD NptGly F] (Ac-Q[Cha]D[tBuAla]F-OH; C-terminus assumed) | 5.63 | – | – | – | –
3 | CC(=O)N[C@@H](CCC(N)=O)C(=O)N[C@@H](CC1CCCCC1)C(=O)N[C@@H](CC(=O)O)C(=O)N[C@@H](CC(C)C)C(=O)N[C@@H](CC1CCCCC1)C(=O)O [Peptide P20, Ac-Q Cha DL Cha] (Ac-Q[Cha]DL[Cha]-OH; C-terminus assumed) | 0.41 | – | – | – | –
4 | CC(=O)N[C@@H](CCCNC(=N)N)C(=O)N[C@@H](CCC(N)=O)C(=O)N[C@@H](CC1CCCCC1)C(=O)N[C@@H](CCCCN)C(=O)N[C@@H](CC(C)C)C(=O)N[C@@H](Cc1ccccc1)C(=O)O [Peptide P14-8, Ac R Q Cha K L F] (Ac-RQ[Cha]KLF-OH; C-terminus assumed) | – | – | – | – | Ki (E. coli β clamp): 904 nM; affinity for the target (E. coli β clamp; SPR): 1 µM; fold decrease in affinity compared to P14 (E. coli β clamp; SPR): 10 fold
5 | CC(=O)N[C@@H](CCC(N)=O)C(=O)N[C@@H](CC1CCCCC1)C(=O)N[C@@H](CC(=O)O)C(=O)N[C@@H](CC(C)C)C(=O)N[C@@H](Cc1ccc(C)cc1)C(=O)O [Peptide P11, Ac-Gln-Cha-Asp-Leu-pMePhe-OH] (Ac-Q[Cha]DL[Phe(4-Me)]-OH) | 0.26 | 8.43 10^6 M^−1 | -9.44 | 0.95 | ΔG (β ring [1]): -8.6 kcal/mol; ΔΔG (Kcal/mol) = ΔGj − ΔGi, reference i = P7 (β ring [1]; from ITC data): +0.25 Kcal/mol
6 | CC(=O)N[C@@H](CCC(N)=O)C(=O)N[C@@H](CC1CCCCC1)C(=O)N[C@@H](CC(=O)O)C(=O)N[C@@H](CC(C)C)C(=O)N[C@@H](Cc1ccc(Cl)cc1)C(=O)O [Peptide P12, Ac-Gln-Cha-Asp-Leu-pClPhe-OH] (Ac-Q[Cha]DL[Phe(4-Cl)]-OH) | 0.16 | 13.7 10^6 M^−1 | -9.73 | 1.02 and 1.06 | ΔΔG (Kcal/mol) = ΔGj − ΔGi, reference i = P7 (β ring [1]; from ITC data): -0.6 kcal/mol; ΔΔG (Kcal/mol) = ΔGj − ΔGi, reference i = P11 (β ring [1]; from ITC data): -0.85 kcal/mol; ΔΔG (Kcal/mol) = ΔGj − ΔGi, reference i = P13 (β ring [1]; from ITC data, compared to P13): -0.32 kcal/mol
7 | H-RQLVFL-OH [Peptide P4, H-Arg-Gln-Leu-Val-Phe-Leu-OH] | 256 | – | – | – | –
8 | CC(=O)N[C@@H](CCC(N)=O)C(=O)N[C@@H](CC1CCCCC1)C(=O)N[C@@H](CC(=O)O)C(=O)N[C@@H](CC(C)C)C(=O)N[C@@H](Cc1ccccc1)C(=O)O [Peptide P7, Ac-Gln-Cha-Asp-Leu-Phe-OH] (Ac-Q[Cha]DLF-OH) | 0.17 | 8.01 10^6 M^−1 | -9.42 | 0.74 and 0.76 | Ki (E. coli β clamp): 170 nM; fold decrease in affinity compared to P14 (E. coli β clamp; SPR): 2 fold; fold increase in interaction/affinity compared to P6 (E. coli β clamp; SPR): 6 fold; ΔG (β ring [1]): -8.9 kcal/mol; ΔΔG (Kcal/mol) = ΔGj − ΔGi, reference i = P6 (β ring [1]; from ITC data, compared to P6): -0.66 kcal/mol
9 | H-RQLVLL-OH [Peptide P2, H-Arg-Gln-Leu-Val-Leu-Leu-OH] | 21.5 | 0.0063 10^6 M^−1 | -6.54 | – | –
10 | CC(=O)N[C@@H](CCC(N)=O)C(=O)N[C@@H](CC1CCCCC1)C(=O)N[C@@H](CC(=O)O)C(=O)N[C@@H](CC(C)C)C(=O)N[C@@H](Cc1ccc(Br)cc1)C(=O)O [Peptide P13, Ac-Gln-Cha-Asp-Leu-pBrPhe-OH] (Ac-Q[Cha]DL[Phe(4-Br)]-OH) | 0.096 | 13.49 10^6 M^−1 | -9.71 | 0.85 and 0.83 | ΔΔG (Kcal/mol) = ΔGj − ΔGi, reference i = P7 (β ring [1]; from ITC data): -0.28 kcal/mol; ΔΔG (Kcal/mol) = ΔGj − ΔGi, reference i = P11 (β ring [1]; from ITC data): -0.53 kcal/mol
11 | CC(=O)N[C@@H](CCC(N)=O)C(=O)N[C@@H](CCC(C)C)C(=O)N[C@@H](CC(=O)O)C(=O)N[C@@H](CC(C)C)C(=O)N[C@@H](Cc1ccccc1)C(=O)O [Peptide P9, Ac-Gln-Hol-Asp-Leu-Phe-OH] | 0.74 | 1.84 10^6 M^−1 | -8.54 | – | –
12 | Ac-RQLVLF [Peptide P15, Ac-RQLVLF] | – | – | – | – | IC50 (β ring [2]): 1910 nM
